US9026372B2, “Methods for providing a system of care for a high-dose oxazaphosphorine drug regimen” (Accentia Biopharmaceuticals, Inc., priority 2007, dated 2015)
Read-outs that look alike come from different tables or passages of the source.

Tests used:
[1] = system: aggressive relapsing-remitting multiple sclerosis
Excerpt: All 9 patients had aggressive relapsing-remitting multiple sclerosis, 8 of whom failed conventional therapy and 1 was untreated. Median age at time of entry was 29 years (range of 20 to 47 years). The mean number of gadolinium enhancing lesions on baseline MRI was 6.5 (range 3-11).

[2] = system: white blood cell (WBC) count
Excerpt: On Day 6, (six days after completion of high-dose cyclophosphamide treatment), patients received G-CSF.

## O=P1(N(CCCl)CCCl)NCCCO1 (centres unmarked) [cyclophosphamide]
[1]; 9 patients, at baseline 66% had EDSS of 5.0 or more
  reduction in disability (EDSS): 50%
[1]; at 6 months following 50 mg/kg/day intravenously for four days, 9 patients, baseline mean 6.5 lesions
  reduction in gadolinium enhancements: 90%
[1]; by 18 months following 50 mg/kg/day intravenously for four days, 9 patients
  reduction in gadolinium enhancements: 94%
[1]; initial cohort of 9 patients with severe relapsing MS
  adverse outcomes: no significant adverse outcomes
[1]; of 9 patients, after treatment
  patients having no disability (EDSS score of 0): 3 patients
  patients with EDSS score of 1: 1 patient
[1]; of 9 patients, started on conventional MS therapy at 18 months
  patients with an exacerbation during follow-up: one
[2]; patient HiCy01, never had GEL, suspected exacerbations
  minimum WBC: 70
[2]; patient HiCy07, went to 0 GEL, single GEL on follow-up MRI
  minimum WBC: 6
[2]; patient HiCy11, GEL on every follow up
  minimum WBC count: 24
[2]; patient HiCy14, went to 0 GEL, single GEL on follow-up MRI
  minimum WBC: 31
[2]; patient HiCy19, GEL on every follow up, only 6 months of follow-up
  minimum WBC count: 50
[2]; patients HiCy05 and HiCy13, within two weeks of treatment, no GEL up to 24 months follow-up
  WBC count (minimum): 0
[2]; patients HiCy09 and HiCy15 (both), 0 GEL
  minimum WBC count: 12
